Earlier results as cited in US20150202168A1, “ORAL FILM FORMULATIONS COMPRISING DAPOXETINE AND TADALAFIL” (Sanovel Ilac Sanayi Ve Ticaret Anonim Sirketi, priority 2012, published 2015).

How the values were obtained:
[1] = following oral administration
[2] = Int J Impot Res. 2006; 18(1):104-10
human body = conditions: studies conducted

Compound: CN1CC(=O)N2[C@H](c3ccc4c(c3)OCO4)c3[nH]c4ccccc4c3C[C@@H]2C1=O [Tadalafil, (6R-trans)-6-(1,3-benzodioxol-5-yl)-2,3,6,7,12,12a-hexahydro-2-methyl-pyrazino[1′,2′:1,6]pyrido[3,4-b]indole-1,4-dione]
- solubility in water: poorly soluble

Compound: CN(C)[C@@H](CCOc1cccc2ccccc12)c1ccccc1 [dapoxetine]
- binding to the plasma proteins [1]: almost completely
- interactions with PDE5 inhibitors [2]: does not have pharmaceutical interactions

Compound: Mogroside
- toxicity to human body (human body): not toxic
